The numbers were not newly measured in patent US20040053963A1, “Urotensin-II receptor antagonists” (priority 2003, published 2004), which cites them from elsewhere.

The data set relates to rat-isolated aorta. Conditions: Ames et. al. Nature 1999, 401, 282.

As for `CC(C)[C@H](NC(=O)[C@@H]1CSSC[C@H](NC(=O)[C@H](CC(=O)O)NC(=O)[C@@H]2CCCN2C(=O)[C@@H](NC(=O)[C@@H](N)CCC(=O)O)[C@@H](C)O)C(=O)N[C@@H](Cc2ccccc2)C(=O)N[C@@H](Cc2c[nH]c3ccccc23)C(=O)N[C@@H](CCCCN)C(=O)N[C@@H](Cc2ccc(O)cc2)C(=O)N1)C(=O)O` [Human Urotensin-II], the contractile activity entry is on record as “most potent contractile agonist identified to date”.
